Experimental data published in US7951232B2, “Surface coating compositions and methods” (Elevance Renewable Sciences, Inc., priority 2006, dated 2011).
Read-outs that look alike come from different tables or passages of the source.

Legend:
[1] = tested on: Penecillium verrucosum, ATCC 18381; test: Preservative effectiveness, USP <51>; type: cell-based
Protocol: (§1) The effectiveness of 9-decenoic acid on Aspergillus and Penecillium which occasionally result in in-can spoilage of paint was determined using the protocol on preservative effectiveness found in the United States Pharmacopeia (USP), 25th Edition, 2002, USP <51>.
(§2) Stock cultures of the fungi Aspergillus flavus, ATCC 9170 and Penecillium verrucosum, ATCC 18381 were cultured onto Sabouraud Dextrose Agar (SDA) and incubated at 25-30° C. for at least 1 week. The spores were washed form the agar surface with sterile saline, filtered through sterile glass wool, enumerated and stored under refrigeration for no longer than thirty days. On the day of the test, the suspension was diluted to approximately 10^8 CFU/ml.
(§3) The 9-decenoic acid was diluted in the same manner as previously described to achieve, 0.25, 0.125, 0.0625, 0.03, 0.015, 0.0078 and 0.0039% and dispensed in 20 ml aliquots in sterile test tubes. For each concentration tested, a 0.1 ml aliquot of each inoculum was added to a final concentration of 10^5 to 10^6 CFU/ml. The tubes were incubated at room temperature and sampled on days 0, 1, 2, 4, 7, 14, 21 and 28.
(§4) At each sample point, 1.0 ml aliquots were withdrawn, serially diluted and plated in triplicate on SDA. The plates were incubated at 25-30° C. for 3-7 days. The colonies were counted and the average CFU/ml was calculated. Controls for purity, viability and sterility were performed as described previously.
(§5) According to the US Pharmacopoeia, a test compound is an effective preservative if the concentrations of viable fungi remain at or below the initial concentrations during the first fourteen days and after 28 days. According to this definition, 9-decenoic acid is an effective preservative against Aspergillus flavus and Penecillium verrucosum at concentrations as low at 0.078%. […] For A. flavus, 9-decenoic acid was fungicidal at 0.015% after 21 days and at day 0 at 0.03%.

[2] = tested on: Aspergillus flavus, ATCC 9170; test: Preservative effectiveness, USP <51>; type: cell-based
Protocol: as §1, §2, §3, §4, §5

C=CCCCCCCCC(=O)O [9-decenoic acid]
2.9 log: Log reduction of organisms after exposure ([2]; 0.015%, exposure 1 day)
0.4 log: Log reduction of organisms after exposure ([2]; 0.0078%, exposure 4 days) | Log reduction of organisms after exposure ([2]; 0.0078%, exposure 7 days) | Log reduction of organisms after exposure ([2]; 0.0078%, exposure 14 days)
1.9 log: Log reduction of organisms after exposure ([1]; 0.0078%, exposure 28 days)
4.8 log: Log reduction of organisms after exposure ([2]; 0.015%, exposure 14 days) | Log reduction of organisms after exposure ([2]; 0.015%, exposure 28 days)
0.3 log: Log reduction of organisms after exposure ([2]; 0.0078%, exposure 1 day)
3.4 log: Log reduction of organisms after exposure ([1]; 0.03%, exposure 0 days)
2 days: time after which fungicidal [1]
3.0 log: Log reduction of organisms after exposure ([1]; 0.015%, exposure 1 day)
1.8 log: Log reduction of organisms after exposure ([1]; 0.0078%, exposure 21 days)
0 days: time after which fungicidal ([2]; at 0.03%)
21 days: time after which fungicidal ([2]; at 0.015%)
0.2 log: Log reduction of organisms after exposure ([2]; 0.0078%, exposure 0 days) | Log reduction of organisms after exposure ([2]; 0.0078%, exposure 2 days)
1 days: time after which fungicidal ([1]; at 0.03%)
0.8 log: Log reduction of organisms after exposure ([1]; 0.0078%, exposure 2 days) | Log reduction of organisms after exposure ([1]; 0.0078%, exposure 4 days) | Log reduction of organisms after exposure ([1]; 0.0078%, exposure 7 days) | Log reduction of organisms after exposure ([1]; 0.0078%, exposure 14 days) | Log reduction of organisms after exposure ([2]; 0.0078%, exposure 21 days) | Log reduction of organisms after exposure ([2]; 0.0078%, exposure 28 days)
3.1 log: Log reduction of organisms after exposure ([2]; 0.015%, exposure 2 days)
1.2 log: Log reduction of organisms after exposure ([2]; 0.015%, exposure 0 days)
4.3 log: Log reduction of organisms after exposure ([1]; 0.0625%, exposure 0 days)
0 log: Log reduction of organisms after exposure ([1]; 0.0078%, exposure 0 days)
5.1 log: Log reduction of organisms after exposure ([1]; 0.015%, exposure 2 days) | Log reduction of organisms after exposure ([1]; 0.015%, exposure 4 days) | Log reduction of organisms after exposure ([1]; 0.015%, exposure 7 days) | Log reduction of organisms after exposure ([1]; 0.015%, exposure 14 days) | Log reduction of organisms after exposure ([1]; 0.015%, exposure 21 days) | Log reduction of organisms after exposure ([1]; 0.015%, exposure 28 days) | Log reduction of organisms after exposure ([1]; 0.03%, exposure 1 day) | Log reduction of organisms after exposure ([1]; 0.03%, exposure 2 days) | Log reduction of organisms after exposure ([1]; 0.03%, exposure 4 days) | Log reduction of organisms after exposure ([1]; 0.03%, exposure 7 days) | Log reduction of organisms after exposure ([1]; 0.03%, exposure 14 days) | Log reduction of organisms after exposure ([1]; 0.03%, exposure 21 days) | Log reduction of organisms after exposure ([1]; 0.03%, exposure 28 days) | Log reduction of organisms after exposure ([1]; 0.0625%, exposure 1 day) | Log reduction of organisms after exposure ([1]; 0.0625%, exposure 2 days) | Log reduction of organisms after exposure ([1]; 0.0625%, exposure 4 days) | Log reduction of organisms after exposure ([1]; 0.0625%, exposure 7 days) | Log reduction of organisms after exposure ([1]; 0.0625%, exposure 14 days) | Log reduction of organisms after exposure ([1]; 0.0625%, exposure 21 days) | Log reduction of organisms after exposure ([1]; 0.0625%, exposure 28 days) | Log reduction of organisms after exposure ([2]; 0.015%, exposure 21 days) | Log reduction of organisms after exposure ([2]; 0.03%, exposure 0 days) | Log reduction of organisms after exposure ([2]; 0.03%, exposure 1 day) | Log reduction of organisms after exposure ([2]; 0.03%, exposure 2 days) | Log reduction of organisms after exposure ([2]; 0.03%, exposure 4 days) | Log reduction of organisms after exposure ([2]; 0.03%, exposure 7 days) | Log reduction of organisms after exposure ([2]; 0.03%, exposure 14 days) | Log reduction of organisms after exposure ([2]; 0.03%, exposure 21 days) | Log reduction of organisms after exposure ([2]; 0.03%, exposure 28 days) | Log reduction of organisms after exposure ([2]; 0.0625%, exposure 0 days) | Log reduction of organisms after exposure ([2]; 0.0625%, exposure 1 day) | Log reduction of organisms after exposure ([2]; 0.0625%, exposure 2 days) | Log reduction of organisms after exposure ([2]; 0.0625%, exposure 4 days) | Log reduction of organisms after exposure ([2]; 0.0625%, exposure 7 days) | Log reduction of organisms after exposure ([2]; 0.0625%, exposure 14 days) | Log reduction of organisms after exposure ([2]; 0.0625%, exposure 21 days) | Log reduction of organisms after exposure ([2]; 0.0625%, exposure 28 days)
3.9 log: Log reduction of organisms after exposure ([2]; 0.015%, exposure 4 days) | Log reduction of organisms after exposure ([2]; 0.015%, exposure 7 days)
0.1 log: Log reduction of organisms after exposure ([1]; 0.0078%, exposure 1 day) | Log reduction of organisms after exposure ([1]; 0.015%, exposure 0 days)
